Values of other authors, collected in publication PMC4939794 (Biochemistry, 2015).

In the case of green fluorescent protein [GFP], the CRO maturation half-life (depending on the variant and the conditions) is given as 19 to 83 min, the folding rates (multiphasic, three to five folding rates) is given as 10 to 0.01 s^−1 and the unfolding half-life (water at neutral pH, standard temperature and pressure, estimated) is given as “greater than 1 month”.
